SMILES strings stand for the structures.

In assay [1] the test system is C2C12 myotubes. Kind of assay: Oxidative stress (GSH content) and mitochondrial function in dexamethasone-treated myotubes. Type of assay: cell-based, mouse. As to conditions: 20 μM compound, 100 μM dexamethasone for 24 hours, FIG. 8; for glutathione (GSH) content: decreased by dexamethasone. Here is the method:
(§1) Cell culture and differentiation of myoblasts: C2C12 mouse (CRL1772; American type cell collection, USA) derived myoblasts were cultured in Dulbecco's Modified Eagle's Medium (DMEM) medium supplemented with 10 (v/v) % FBS, and after reaching 90% confluence, they were transferred to DMEM medium containing 2 (v/v) % horse serum and cultured for 7 days to differentiate into myotubes.
As in Example 4, C2C12 myoblasts were differentiated into myotubes, and then treated with 100 μM of dexamethasone for 24 hours to induce oxidative stress or mitochondrial dysfunction, and then treated with 20 μM of three compounds (catechol, 4-ethyl catechol, and methyl dihydroxycaffeate) isolated from the extract of Aralia Elata to determine their efficacy in ameliorating oxidative stress and mitochondrial dysfunction. […] Furthermore, the mitochondrial dysfunction induced by dexamethasone treatment was ameliorated by treatment with the present compound derived from the extract of Aralia Elata (FIG. 8).

The subject of assay [2] is Ppargc1a, UCp3, Tomm20, and Tfam gene expression in C2C12 mouse-derived endodermal cells. Description: RT-qPCR of exercise performance-related gene expression. Type of assay: cell-based. The note with it: dexamethasone 10 μM, beta-actin control, reduced by dexamethasone, FIG. 9. Here is the method: (§2) C2C12 mouse-derived endodermal cells treated with dexamethasone 10 μM were washed twice with PBS, and total RNA was extracted according to the user-recommended protocol of an RNA extraction kit (GeneAll RNA isolation kit, Seoul, South Korea). cDNA was synthesized from the extracted RNA, and subjected to real time-quantitative polymerase chain reaction (RT-qPCR). PCR analysis was performed according to the user-recommended cycling conditions of the analyzer (Applied Biosystems 7900 HT thermal cycler, Applied Biosystems). To determine the expression level of each mRNA, fold change values relative to the control were calculated using beta-actin as an endogenous control, and relative expression levels were compared.
Background: Real-time PCR tracks product formation cycle by cycle.

For assay [3], the system named is Ppargc1a, UCp3, Tomm20, and Tfam gene expression in C2C12 mouse-derived cells. The description is as above. Type of assay: cell-based. The note with it: dexamethasone 10 μM, beta-actin control, reduced by dexamethasone, FIG. 9. Here is the method:
as §2

For assay [4], the system named is Mstn, Myd1, Myog, and Myf5 gene expression in C2C12 mouse-derived myotubes. Kind of assay: RT-qPCR of muscle cell differentiation-related gene expression. Type of assay: cell-based. As to conditions: dexamethasone 10 μM, beta-actin control, FIG. 7; for Mstn gene expression (marker of muscle growth inhibition): increased by dexamethasone; for Myd1 gene expression (marker of myogenic differentiation) / Myf5 gene expression (marker of myogenic differentiation) / Myog gene expression (marker of myogenic differentiation): reduced by dexamethasone. Here is the method:
as §2, with “mouse-derived myotubes” for “mouse-derived endodermal cells”, “extracted RNA” for “extracted RNA,”, “(RT-qPCR). POR” for “(RT-qPCR). PCR”

In assay [5] the test system is C2C12 myotubes. Description: Myotube cell survival rate after dexamethasone-induced myoatrophy. The note with it: 20 μM compound; 100 μM dexamethasone for 24 hours; FIG. 5. It counts as cell-based, mouse. As for the experimental part:
as §1
C2C12 myoblasts were differentiated into myotubes, and then treated with 100 μM of dexamethasone for 24 hours to induce myoatrophy, and 20 μM of 13 compounds isolated from the extract (see Table 1) to determine the effect of alleviating myoatrophy.

The test system of assay [6] is mice in which sarcopenia was induced by administration of Dexamethasone. Kind of assay: Grip strength and body weight in dexamethasone-induced sarcopenia mouse model. It counts as in vivo, C57BL/6J mice. The note with it: compared to the group treated only with Dexamethasone (25 mg/kg i.p., 2 weeks); oral once daily 4 weeks; AE 10, 50 or 100 mg/kg, S-23 25 mg/kg; FIG. 2. As for the experimental part:
The present inventors created a sarcopenia mouse model to confirm the effectiveness of Aralia Elata extract prepared in the above-described preparation example to treat or improve sarcopenia, and measured grip strength using the control mouse and the sarcopenia mouse model.
The mice used to confirm the efficacy of Aralia Elata extract were prepared through the following process.
The test substance was prepared in the form of a liquid suspension using 0.5% CMC and administered for 4 weeks. To correct for the placebo effect of 0.5% CMC and the weight loss effect due to administration stress, 0.5% CMC was orally administered daily to the vehicle control group. Two weeks after administration of the test substance, the experimental group was administered intraperitoneal injection of Dexamethasone for two weeks to induce sarcopenia, and the normal control group was administered saline solution by intraperitoneal injection. All mice were provided with the same AlN76 diet (Research Diets), and the test substances were administered for an additional 2 weeks for a total of 4 weeks. The dark: light cycle was maintained at 12-hour:12-hour intervals, and water was allowed to be consumed freely. […] (Dex: Dexamethasone sarcopenia-inducing substance (25 mg/kg), AE: Aralia Elata extract (10, 50, or 100 mg/kg)).

For `CCc1ccc(O)c(O)c1` [4-ethyl catechol], in the assay on C2C12 myotubes [1], the “mitochondrial dysfunction induced by dexamethasone treatment” value is given as “ameliorated” and the “glutathione (GSH) content” value is “increased again”. In addition, in assay [2], the Tfam gene expression result was “increased”, the Tomm20 gene expression result is given as “increased” and the UCp3 gene expression result is recorded as “increased”. In assay [3], the Ppargc1a gene expression entry is “increased”. Moreover, in assay [4], the “Mstn gene expression (marker of muscle growth inhibition)” value is reported as “decreased”, the “Myd1 gene expression (marker of myogenic differentiation)” value is reported as “increased”, the “Myf5 gene expression (marker of myogenic differentiation)” value is given as “increased” and the “Myog gene expression (marker of myogenic differentiation)” value was “increased”.
With `Oc1ccccc1O` [Compound 3, Catechol], the “viability of myotubes reduced by dexamethasone treatment” value in the assay on C2C12 myotubes [5] was “significantly superior effect”. Also, in the assay on C2C12 myotubes [1], the “mitochondrial dysfunction induced by dexamethasone treatment” value was “ameliorated” and the “glutathione (GSH) content” value is “increased again”. Moreover, in assay [2], the Tfam gene expression result is “increased”, the Tomm20 gene expression result is given as “increased” and the UCp3 gene expression entry is “increased”. Moreover, the Ppargc1a gene expression entry in assay [3] was “increased”. In assay [4], the “Mstn gene expression (marker of muscle growth inhibition)” value is on record as “decreased”, the “Myd1 gene expression (marker of myogenic differentiation)” value was “increased”, the “Myf5 gene expression (marker of myogenic differentiation)” value is on record as “increased” and the “Myog gene expression (marker of myogenic differentiation)” value is listed as “increased”.
As for `CCc1ccc(O)c(O)c1` [Compound 4, 4-ethyl catechol], in the assay with C2C12 myotubes [5], the “viability of myotubes reduced by dexamethasone treatment” value is “significantly superior effect”.
Turning to `C[C@](O)(COc1ccc(Cl)c(F)c1)C(=O)Nc1ccc(C#N)c(C(F)(F)F)c1` [Compound S-23], in assay [6], the body weight result is reported as “increased” and the grip strength result is given as “increased”.
